Experimental data published in patent publication US20220389007A1, “INHIBITORS OF HUMAN IMMUNODEFICIENCY VIRUS REPLICATION” (VIIV HEALTHCARE UK (No. 5) LIMITED, priority 2019, published 2022).

Columns and labels:
[1] = Compound cytotoxicity, XTT-based colorimetric assay; type: cell-based; conditions: human; uninfected MT2 cells, day 4, XTT assay
In short: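 Run under the antiviral-assay protocol but without virus. Viability was read on day 4 and CC50 values were derived from the readout.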

recombinant NL4-3 virus = assay: HIV cell culture assay (antiviral activity, luciferase readout); type: cell-based; conditions: Human immunodeficiency virus 1, NL43, MT2, MT-2 cells infected for 4-5 days with recombinant NL4-3 virus carrying Renilla luciferase
In short: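 MT-2 cells infected for 4-5 days with NL4-3 reference virus carrying Renilla luciferase in place of part of nef, in presence of serial compound dilutions. Luciferase read with live-cell substrate; EC50 from median effect equation fit.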

| SMILES | CC50 at 4 day [1] [nM] | EC50 (recombinant NL4-3 virus) [nM] |
| --- | --- | --- |
| Cc1cc(C)nc(-c2ccc3c(=O)n(-c4ccc(Cl)c5c(NS(C)(=O)=O)nn(C)c45)c([C@H](Cc4cc(F)cc(F)c4)NC(=O)Cn4nc(C(F)F)c5c4C(F)(F)[C@@H]4C[C@H]54)nc3n2)n1 (atropisomer, axis not shown; (P)) [Example 11, N-((S)-1-((3P)-3-(4-chloro-1-methyl-3-(methylsulfonamido)-1H-indazol-7-yl)-7-(4,6-dimethylpyrimidin-2-yl)-4-oxo-3,4-dihydropyrido[2,3-d]pyrimidin-2-yl)-2-(3,5-difluorophenyl)ethyl)-2-((3bS,4aR)-3-(difluoromethyl)-5,5-difluoro-3b,4,4a,5-tetrahydro-1H-cyclopropa[3,4]cyclopenta[1,2-c]pyrazol-1-yl)acetamide] | > 100 | 0.036 |
| Cn1nc(NS(C)(=O)=O)c2c(Cl)ccc(-n3c([C@H](Cc4cc(F)cc(F)c4)NC(=O)Cn4nc(C(F)F)c5c4C(F)(F)[C@@H]4C[C@H]54)nc4nc(-c5ccn(CC(F)(F)F)n5)ccc4c3=O)c21 (atropisomer, axis not shown; (P)) [Example 73, N-((S)-1-((3P)-3-(4-chloro-1-methyl-3-(methylsulfonamido)-1H-indazol-7-yl)-4-oxo-7-(1-(2,2,2-trifluoroethyl)-1H-pyrazol-3-yl)-3,4-dihydropyrido[2,3-d]pyrimidin-2-yl)-2-(3,5-difluorophenyl)ethyl)-2-((3bS,4aR)-3-(difluoromethyl)-5,5-difluoro-3b,4,4a,5-tetrahydro-1H-cyclopropa[3,4]cyclopenta[1,2-c]pyrazol-1-yl)acetamide] | > 100 | 0.029 |
| Cn1nc(NS(C)(=O)=O)c2c(Cl)ccc(-n3c([C@H](Cc4cc(F)cc(F)c4)NC(=O)Cn4nc(C(F)F)c5c4C(F)(F)[C@@H]4C[C@H]54)nc4nc(-c5ccc6scnc6c5)ccc4c3=O)c21 (atropisomer, axis not shown; (P)) [Example 72, N-((S)-1-(7-(benzo[d]thiazol-5-yl)-(3P)-3-(4-chloro-1-methyl-3-(methylsulfonamido)-1H-indazol-7-yl)-4-oxo-3,4-dihydropyrido[2,3-d]pyrimidin-2-yl)-2-(3,5-difluorophenyl)ethyl)-2-((3bS,4aR)-3-(difluoromethyl)-5,5-difluoro-3b,4,4a,5-tetrahydro-1H-cyclopropa[3,4]cyclopenta[1,2-c]pyrazol-1-yl)acetamide] | > 100 | 0.11 |
| COc1cc(-c2ccc3c(=O)n(-c4ccc(Cl)c5c(NS(C)(=O)=O)nn(C)c45)c([C@H](Cc4cc(F)cc(F)c4)NC(=O)Cn4nc(C(F)F)c5c4C(F)(F)[C@@H]4C[C@H]54)nc3n2)ccn1 (atropisomer, axis not shown; (P)) [Example 59, N-((S)-1-((3P)-3-(4-chloro-1-methyl-3-(methylsulfonamido)-1H-indazol-7-yl)-7-(2-methoxypyridin-4-yl)-4-oxo-3,4-dihydropyrido[2,3-d]pyrimidin-2-yl)-2-(3,5-difluorophenyl)ethyl)-2-((3bS,4aR)-3-(difluoromethyl)-5,5-difluoro-3b,4,4a,5-tetrahydro-1H-cyclopropa[3,4]cyclopenta[1,2-c]pyrazol-1-yl)acetamide] | > 100 | 0.05 |
| Cn1nccc1-c1ccc2c(=O)n(-c3ccc(Cl)c4c(NS(C)(=O)=O)nn(C)c34)c([C@H](Cc3cc(F)cc(F)c3)NC(=O)Cn3nc(C(F)F)c4c3C(F)(F)[C@@H]3C[C@H]43)nc2n1 (atropisomer, axis not shown; (P)) [Example 68, N-((S)-1-((3P)-3-(4-chloro-1-methyl-3-(methylsulfonamido)-1H-indazol-7-yl)-7-(1-methyl-1H-pyrazol-5-yl)-4-oxo-3,4-dihydropyrido[2,3-d]pyrimidin-2-yl)-2-(3,5-difluorophenyl)ethyl)-2-((3bS,4aR)-3-(difluoromethyl)-5,5-difluoro-3b,4,4a,5-tetrahydro-1H-cyclopropa[3,4]cyclopenta[1,2-c]pyrazol-1-yl)acetamide] | > 100 | 0.049 |
| Cn1nc(NS(C)(=O)=O)c2c(Cl)ccc(-n3c([C@H](Cc4cc(F)cc(F)c4)NC(=O)Cn4nc(C(F)F)c5c4C(F)(F)[C@@H]4C[C@H]54)nc4nc(-c5cncc(C(F)(F)F)n5)ccc4c3=O)c21 (atropisomer, axis not shown; (P)) [Example 13, N-((S)-1-((3P)-3-(4-chloro-1-methyl-3-(methylsulfonamido)-1H-indazol-7-yl)-4-oxo-7-(6-(trifluoromethyl)pyrazin-2-yl)-3,4-dihydropyrido[2,3-d]pyrimidin-2-yl)-2-(3,5-difluorophenyl)ethyl)-2-((3bS,4aR)-3-(difluoromethyl)-5,5-difluoro-3b,4,4a,5-tetrahydro-1H-cyclopropa[3,4]cyclopenta[1,2-c]pyrazol-1-yl)acetamide] | > 100 | 0.04 |
| COc1ncc(-c2ccc3c(=O)n(-c4ccc(Cl)c5c(NS(C)(=O)=O)nn(C)c45)c([C@H](Cc4cc(F)cc(F)c4)NC(=O)Cn4nc(C(F)F)c5c4C(F)(F)[C@@H]4C[C@H]54)nc3n2)s1 (atropisomer, axis not shown; (P)) [Example 82, N-((S)-1-((3P)-3-(4-chloro-1-methyl-3-(methylsulfonamido)-1H-indazol-7-yl)-7-(2-methoxythiazol-5-yl)-4-oxo-3,4-dihydropyrido[2,3-d]pyrimidin-2-yl)-2-(3,5-difluorophenyl)ethyl)-2-((3bS,4aR)-3-(difluoromethyl)-5,5-difluoro-3b,4,4a,5-tetrahydro-1H-cyclopropa[3,4]cyclopenta[1,2-c]pyrazol-1-yl)acetamide] | > 100 | 0.069 |
| Cn1nc(NS(C)(=O)=O)c2c(Cl)ccc(-n3c([C@H](Cc4cc(F)cc(F)c4)NC(=O)Cn4nc(C(F)F)c5c4C(F)(F)[C@@H]4C[C@H]54)nc4nc(-c5cc(C(F)(F)F)n(CC(C)(F)F)n5)ccc4c3=O)c21 (single isomer, unassigned) [Example 94] | > 100 | 0.16 |
| Cc1nc2ccc(-c3ccc4c(=O)n(-c5ccc(Cl)c6c(NS(C)(=O)=O)nn(C)c56)c([C@H](Cc5cc(F)cc(F)c5)NC(=O)Cn5nc(C(F)F)c6c5C(F)(F)[C@@H]5C[C@H]65)nc4n3)cc2s1 (atropisomer, axis not shown; (P)) [Example 67, N-((S)-1-((3P)-3-(4-chloro-1-methyl-3-(methylsulfonamido)-1H-indazol-7-yl)-7-(2-methylbenzo[d]thiazol-6-yl)-4-oxo-3,4-dihydropyrido[2,3-d]pyrimidin-2-yl)-2-(3,5-difluorophenyl)ethyl)-2-((3bS,4aR)-3-(difluoromethyl)-5,5-difluoro-3b,4,4a,5-tetrahydro-1H-cyclopropa[3,4]cyclopenta[1,2-c]pyrazol-1-yl)acetamide] | > 100 | 0.55 |
| Cn1nc(NS(C)(=O)=O)c2c(Cl)ccc(-n3c([C@H](Cc4cc(F)cc(F)c4)NC(=O)Cn4nc(C(F)F)c5c4C(F)(F)[C@@H]4C[C@H]54)nc4nc(-c5cccc(OC(F)(F)F)c5)ccc4c3=O)c21 (atropisomer, axis not shown; (P)) [Example 21, N-((S)-1-((3P)-3-(4-chloro-1-methyl-3-(methylsulfonamido)-1H-indazol-7-yl)-4-oxo-7-(3-(trifluoromethoxy)phenyl)-3,4-dihydropyrido[2,3-d]pyrimidin-2-yl)-2-(3,5-difluorophenyl)ethyl)-2-((3bS,4aR)-3-(difluoromethyl)-5,5-difluoro-3b,4,4a,5-tetrahydro-1H-cyclopropa[3,4]cyclopenta[1,2-c]pyrazol-1-yl)acetamide] | > 100 | 0.39 |
| Cn1nc(NS(C)(=O)=O)c2c(Cl)ccc(-n3c([C@H](Cc4cc(F)cc(F)c4)NC(=O)Cn4nc(C(F)F)c5c4C(F)(F)[C@@H]4C[C@H]54)nc4nc(-c5cccc(C(F)(F)F)c5)ccc4c3=O)c21 (atropisomer, axis not shown; (P)) [Example 24, N-((S)-1-((3P)-3-(4-chloro-1-methyl-3-(methylsulfonamido)-1H-indazol-7-yl)-4-oxo-7-(3-(trifluoromethyl)phenyl)-3,4-dihydropyrido[2,3-d]pyrimidin-2-yl)-2-(3,5-difluorophenyl)ethyl)-2-((3bS,4aR)-3-(difluoromethyl)-5,5-difluoro-3b,4,4a,5-tetrahydro-1H-cyclopropa[3,4]cyclopenta[1,2-c]pyrazol-1-yl)acetamide] | > 100 | 0.16 |
| Cn1nc(NS(C)(=O)=O)c2c(Cl)ccc(-n3c([C@H](Cc4cc(F)cc(F)c4)NC(=O)Cn4nc(C(F)F)c5c4C(F)(F)[C@@H]4C[C@H]54)nc4nc(-c5ccc(F)c(C(F)(F)F)c5)ccc4c3=O)c21 (atropisomer, axis not shown; (P)) [Example 19, N-((S)-1-((3P)-3-(4-chloro-1-methyl-3-(methylsulfonamido)-1H-indazol-7-yl)-7-(4-fluoro-3-(trifluoromethyl)phenyl)-4-oxo-3,4-dihydropyrido[2,3-d]pyrimidin-2-yl)-2-(3,5-difluorophenyl)ethyl)-2-((3bS,4aR)-3-(difluoromethyl)-5,5-difluoro-3b,4,4a,5-tetrahydro-1H-cyclopropa[3,4]cyclopenta[1,2-c]pyrazol-1-yl)acetamide] | > 100 | 0.23 |
